The record followed here is ChEMBL document CHEMBL1955806, “Design, synthesis, single-crystal and preliminary antitumor activity of novel arenesulfonylimidazolidin-2-ones” (2012).

SMILES strings stand for the structures.

Holding throughout (type): functional
One test concerns UACC-62. The test can be described thus: Growth inhibition of human UACC62 cells at 10 uM after 48 hrs by sulforhodamine B assay. The note with it: UACC-62, 48 h, read-out: GI. (Sulforhodamine B stains cellular protein and so reports cell mass.)
A further test has as its system SF-295. The test can be described thus: Growth inhibition of human SF295 cells at 10 uM after 48 hrs by sulforhodamine B assay. The settings on record: SF-295, 48 h, read-out: GI.
The next test concerns CAKI-1. The test can be described thus: Growth inhibition of human CAKI-1 cells at 10 uM after 48 hrs by sulforhodamine B assay. The note with it: CAKI-1, 48 h, read-out: GI.
A further test deals with IGROV-1. Briefly: Growth inhibition of human IGROV1 cells at 10 uM after 48 hrs by sulforhodamine B assay. The note with it: IGROV-1, 48 h, read-out: GI.
A further test deals with PC-3. The test can be described thus: Growth inhibition of human PC3 cells at 10 uM after 48 hrs by sulforhodamine B assay. The note with it: PC-3, 48 h, read-out: GI.
In the next test the test system is UO-31. The test can be described thus: Growth inhibition of human UO31 cells at 10 uM after 48 hrs by sulforhodamine B assay. The settings on record: UO-31, 48 h, read-out: GI.
The test system of a further test is MOLT-4. Briefly: Growth inhibition of human MOLT4 cells at 10 uM after 48 hrs by sulforhodamine B assay. The note with it: MOLT-4, 48 h, read-out: GI.
The next test has as its system HCT-116. The test can be described thus: Growth inhibition of human HCT116 cells at 10 uM after 48 hrs by sulforhodamine B assay. The note with it: HCT-116, 48 h, read-out: GI.
The subject of another test is HOP-92. The test can be described thus: Growth inhibition of human HOP92 cells at 10 uM after 48 hrs by sulforhodamine B assay. The note with it: HOP-92, 48 h, read-out: GI.

On to `COc1ccc(S(=O)(=O)N2C(=O)N[C@H](OC)[C@H]2OC)c(OC)c1` (relative stereo), for which the inhibition of growth at 10 µM in the test on UACC-62 was 8.26%; in the test with SF-295 it was 2.06%; with CAKI-1, 21.2%; in the test with IGROV-1 it was -13.9%; in the test on PC-3, 4.15%; in the test on UO-31 it was 6.25%.

For `COc1ccc(S(=O)(=O)N2C(=O)N[C@H](OC)[C@H]2OC)cc1` (relative stereo), the inhibition of growth at 10 µM was -5.62% with MOLT-4; 8.51% in the test on SF-295; -23.4% in the test with HCT-116; 7.51% in the test on CAKI-1; -20.7% with IGROV-1; -2.45% with PC-3.

With `CO[C@H]1NC(=O)N(S(=O)(=O)c2ccc(Cl)cc2)[C@@H]1OC` (relative stereo), the inhibition of growth at 10 µM is -13.6% in the test with HOP-92; 7.91% in the test with SF-295; -10.3% with HCT-116; 7.49% in the test with CAKI-1; -23.9% with IGROV-1; 2.67% with PC-3. The inhibition of growth at 10 µM in the test on UO-31 amounted to 22%.

In the case of `CO[C@H]1NC(=O)N(S(=O)(=O)c2c(C)cc(C)cc2C)[C@@H]1OC` (relative stereo), the inhibition of growth at 10 µM in the test on HOP-92 was 21.3%; with UACC-62, 6.82%; with CAKI-1, 15.7%; with IGROV-1, -7.61%; with PC-3, 4.26%; with UO-31, 14.7%.

Regarding `COc1ccc(S(=O)(=O)N2C(=O)N(S(=O)(=O)c3ccc(OC)cc3OC)[C@H](OC)[C@H]2OC)c(OC)c1` (relative stereo), the inhibition of growth at 10 µM in the test with UACC-62 is 16%; with MOLT-4, 14.2%; with SF-295, 4.19%; in the test on HCT-116, -2.15%; with CAKI-1 it was 17.1%; in the test on IGROV-1, 3.77%. For the same compound, the inhibition of growth at 10 µM in the test on PC-3 stood at 15.9%; in the test with UO-31, 23.3%.

Consider `CO[C@H]1NC(=O)N(S(=O)(=O)c2ccc3ccccc3c2)[C@@H]1OC` (relative stereo), for which the inhibition of growth at 10 µM with UACC-62 is 1.65%; in the test on SF-295, 4.43%; in the test on HCT-116, -4.18%; in the test with CAKI-1 it was -7.3%; in the test on IGROV-1, -25.5%; in the test on PC-3, 2.1%. The inhibition of growth at 10 µM in the test with UO-31 was found to be 13.7%.

On to `CO[C@@H]1[C@@H](OC)N(S(=O)(=O)c2ccc(Cl)cc2Cl)C(=O)N1S(=O)(=O)c1ccc(Cl)cc1Cl` (relative stereo), for which the inhibition of growth at 10 µM in the test with HOP-92 was 60.2%; in the test with UACC-62, 4.25%; in the test on MOLT-4, 14.2%; in the test with SF-295, 16%; in the test on HCT-116, 11.9%; in the test on CAKI-1, 25%. Also, the inhibition of growth at 10 µM in the test on IGROV-1 stood at 4.16%; in the test with PC-3, 22.5%; with UO-31 it was 15.3%.

With `CO[C@@H]1[C@@H](OC)N(S(=O)(=O)c2ccccc2)C(=O)N1S(=O)(=O)c1ccccc1` (relative stereo), the inhibition of growth at 10 µM in the test on HOP-92 was 29.9%; with UACC-62, -6.88%; with MOLT-4, 13.3%; in the test on SF-295, -12.3%; in the test on HCT-116, -2.02%; in the test on CAKI-1, 10.4%. For the same compound, the inhibition of growth at 10 µM in the test on IGROV-1 was 3.06%; in the test on PC-3, 5.78%; with UO-31, 15%.

For the compound `COc1ccc(S(=O)(=O)N2C(=O)N(S(=O)(=O)c3ccc(OC)cc3)[C@H](OC)[C@H]2OC)cc1` (relative stereo), the inhibition of growth at 10 µM in the test on HOP-92 is 61%; in the test with UACC-62 it was 20.3%; in the test with MOLT-4, 15.6%; in the test on SF-295 it was 6.43%; with HCT-116, 8.94%; with CAKI-1, 36.8%. In addition, the inhibition of growth at 10 µM in the test with IGROV-1 was found to be 6.17%; in the test with PC-3 it was 22.2%; in the test on UO-31 it was 35.1%.
